Data taken from patent publication US20220117964A1, “COMBINATION OF FAK INHIBITOR AND BTK INHIBITOR FOR TREATING A DISEASE” (ASCENTAGE PHARMA (SUZHU) CO., LTD., priority 2019, published 2022).

What was measured:
Type in all cases: cell-based
YES-2 cells = test: Colony formation assay; conditions: 0.5 μM Compound 5, 0.25 μM Ibrutinib or both, 12 days
Description: Growth inhibition was detected by colony formation assay. ESCC cells were inoculated in 6-well plates at about 500 cells/well, and treated with different inhibitors or DMSO, and then replaced with fresh medium containing with different inhibitors or DMSO every 3 to 4 days. The cells were stained with crystal violet (V5265, Sigma, St Louis, Mo., USA) on day 12. After washing twice with PBS, the cells were fixed with 1% paraformaldehyde and incubated for 15 minutes at room temperature. The cells were then washed twice with PBS and stained with 0.5% crystal violet for 15 minutes at room temperature.
(§1) (1) The experimental method was as described in the items (1), (2), (5) of Example 2. […] The changes in signaling pathway of related proteins were determined by Western blotting assay.

[1] = tested on: phosphorylated-FAK (p-FAK, Tyr397); test: Western blot, KYSE-150 and KYSE-520 cells; conditions: KYSE-150 (1 μM Compound 5, 1 μM Ibrutinib) and KYSE-520 (1 μM Compound 5, 0.5 μM Ibrutinib), 24 hours
Description: (§2) The cells were lysed on ice with 1× cell lysis buffer containing 1% protease inhibitor (PMSF) and 1% phosphokinase inhibitor for 30 minutes, centrifuged at 12000 rpm and 4° C. for 15 minutes, and the supernatant protein lysate was collected. The protein concentration was measured by BCA protein concentration detection kit. The cell protein lysates (20 to 50 μg) were separated using 8-12% SDS-PAGE electrophoresis. The separated proteins were transferred to a PVDF membrane. The PVDF membrane was blocked with 5% BSA buffer at room temperature for 30 minutes to 1 hour, and then incubated overnight on a 4° C. shaker with 1× TBST containing primary antibody. The redundant primary antibody was eluted, and the membrane was washed 3 times with 1× TBST, 5 to 10 minutes for each time. The protein band membrane was incubated with horseradish peroxidase-labeled secondary antibody dilution for 1 hour at room temperature, and the membrane was washed 3 times with 1× TBST, 5 to 10 minutes for each time. The signal generation and detection were performed using an ECL chemiluminescence ultrasensitive colorimetric kit and a chemiluminescence imaging system. The primary antibodies used in this experiment included: EGFR, (CST, Cat.4267S); phosphorylated EGFR (p-EGFR (Tyr1068)), (CST, Cat.3777T); FAK, (CST, Cat.3285S); phosphorylated FAK (p-FAK (Tyr397)), (CST, Cat.8556T); AKT, (CST, Cat.4685S); phosphorylated p-AKT (Ser473), (CST, Cat.9271S); ERK, (CST,Cat.4695S); phosphorylated ERK (p-ERK (Thr202/Tyr204)), (CST, Cat.4370T); phosphorylated MEK (p-MEK (Ser217/221)), (CST, Cat.9121S);BTK, (Immunoway, Cat. YM1294); C-Myc, (CST, Cat. 5605); phosphorylated C-Myc, (CST, Cat. 13748); Cyclin B1 (CST, Cat. 12231S), Cylin D1 (CST, Cat.2978S), GAPDH (ABGENT, Cat.AM1020B). The secondary antibodies used in this experiment included goat-anti-rabbit secondary antibody (Senta, Cat. Sc-2004) and goat-anti-mouse secondary antibody (Senta, Cat. Sc-2005).
as §1

Cyclin B1 = test: Western blot, KYSE-150 and KYSE-520 cells; conditions: KYSE-150 (1 μM Compound 5, 1 μM Ibrutinib) and KYSE-520 (1 μM Compound 5, 0.5 μM Ibrutinib), 24 hours
Description: as §2, §1

Cyclin D1 = test: Western blot, KYSE-150 and KYSE-520 cells; conditions: KYSE-150 (1 μM Compound 5, 1 μM Ibrutinib) and KYSE-520 (1 μM Compound 5, 0.5 μM Ibrutinib), 24 hours
Description: as §2, §1

[2] = tested on: phosphorylated EGFR (p-EGFR, Tyr1068); test: Western blot, KYSE-150 and KYSE-520 cells; conditions: KYSE-150 (1 μM Compound 5, 1 μM Ibrutinib) and KYSE-520 (1 μM Compound 5, 0.5 μM Ibrutinib), 24 hours
Description: as §2, §1

[3] = tested on: phosphorylated ERK (p-ERK, Thr202/Tyr204); test: Western blot, KYSE-150 and KYSE-520 cells; conditions: KYSE-150 (1 μM Compound 5, 1 μM Ibrutinib) and KYSE-520 (1 μM Compound 5, 0.5 μM Ibrutinib), 24 hours
Description: as §2, §1

[4] = tested on: phosphorylated MEK (p-MEK, Ser217/221); test: Western blot, KYSE-150 and KYSE-520 cells; conditions: KYSE-150 (1 μM Compound 5, 1 μM Ibrutinib) and KYSE-520 (1 μM Compound 5, 0.5 μM Ibrutinib), 24 hours
Description: as §2, §1

Row | Compound | inhibitory effect on cell clone formation (YES-2 cells) | protein expression level of phosphorylated-FAK (p-FAK, Tyr397) [1] | protein expression level of Cyclin B1 (Cyclin B1) | protein expression level of Cyclin D1 (Cyclin D1) | protein expression level of phosphorylated EGFR (p-EGFR, Tyr1068) [2] | protein expression level of phosphorylated ERK (p-ERK, Thr202/Tyr204) [3] | protein expression level of phosphorylated MEK (p-MEK, Ser217/221) [4]
1 | Cc1cc(Nc2ncc(Cl)c(Nc3ccccc3S(=O)(=O)C(C)C)n2)c(OC(C)C)cc1C1=CCN(C2CCOCC2)CC1 [Compound 5, 5-chloro-N^2-(2-isopropoxy-5-methyl-4-(1-(tetrahydro-2H-pyran-4-yl)-1,2,3,6-tetrahydropyridin-4-yl)phenyl)-N^4-(2-(isopropylsulfonyl)phenyl)pyrimidine-2,4-diamine] | stronger inhibitory effects | significantly decrease | – | – | – | – | –
2 | C=CC(=O)N1CCC[C@@H](n2nc(-c3ccc(Oc4ccccc4)cc3)c3c(N)ncnc32)C1 [Ibrutinib] | – | – | significantly decrease | significantly decrease | significantly decrease | significantly decrease | significantly decrease
